From patent US11673891B2, “Imidazopyrimidine compounds and uses thereof” (Dana-Farber Cancer Institute, Inc., priority 2017, dated 2023)

System: PBMCs
Assay: TNF AlphaLISA screen on primary human PBMCs
Assay type: cell-based
Conditions: robust Z score >2 in both duplicates and at least 2 of 3 donors
Procedure: TNF AlphaLISA screen was comprised of three parts: 1) human peripheral blood collection and PBMC isolation—human adult peripheral blood was collected with written consent. PBMCs were isolated from the blood using Ficoll density gradient. PBMCs were stored at 50 million cells per vial in 1 ml RPMI containing 20% autologous plasma and 10% DMSO at −80° C. until use; 2) TNFαLISA Assay—On Day 1, PBMCs were thawed in 37° C. water bath for 3 min and washed twice with PBS. Trypan blue viable cell count was obtained and cells were resuspended to viable 6.67×10^5 cells/ml in DMEM with 10% autologous plasma. Cells were dispensed in 30 μl per well in Corning 2712 black 384-well cell culture plates (final concentration was 20,000 cells/well). Controls were added to cells manually and the test compounds were added by robotic pin transfer. Plates were then incubated at 37° C./5% CO2 humidity-controlled incubator for 18 hours. On Day 2 of the assay, plates were centrifuged and 2 μl supernatants were collected into Perkin Elmer Alpha plates. Perkin Elmer Human TNFα kits (cat #AL208F) were used to detect the presence of TNFα in supernatants.
TNFαLISA Assay. Human adult peripheral blood was collected according to approved protocols. […] Viability was assessed by trypan blue staining and cells were then resuspended to 6.67×10^5 viable cells/mL in DMEM with 10% autologous plasma. […]

SMILES: CCC(C(=O)Nc1cc(-c2cn3cccnc3n2)ccc1C)c1ccccc1 (stereo not shown) [Compound 37]
- Hit in PBMC TNFαLISA screen (in words): identified in the PBMC TNFαLISA screen
